Measurements as given in ChEMBL document CHEMBL5291721, “A preclinical secondary pharmacology resource illuminates target-adverse drug reaction associations of marketed drugs” (Nat Commun, 2023).

What was measured:
Vasopressin V1a receptor = Vasopressin V1a receptor (Homo sapiens, UniProt P37288)
[1] = molecular target: T1, Alpha-2A adrenergic receptor (Homo sapiens, UniProt P08913); format: functional, cell-based
T1 sequence (P08913 whole entry): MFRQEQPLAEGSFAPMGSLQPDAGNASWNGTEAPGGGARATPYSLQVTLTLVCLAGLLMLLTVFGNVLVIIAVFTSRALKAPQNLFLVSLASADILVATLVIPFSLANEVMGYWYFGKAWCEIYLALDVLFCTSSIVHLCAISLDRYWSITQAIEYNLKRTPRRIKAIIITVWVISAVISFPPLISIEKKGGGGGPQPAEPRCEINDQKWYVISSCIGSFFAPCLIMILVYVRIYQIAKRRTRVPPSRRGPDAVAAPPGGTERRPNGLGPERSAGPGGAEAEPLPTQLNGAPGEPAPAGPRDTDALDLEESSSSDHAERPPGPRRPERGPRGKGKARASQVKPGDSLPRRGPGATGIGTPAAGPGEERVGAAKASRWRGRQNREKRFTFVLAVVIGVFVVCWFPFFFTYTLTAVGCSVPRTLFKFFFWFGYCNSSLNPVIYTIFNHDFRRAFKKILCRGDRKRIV

Adenosine receptor A3 = molecular target: T2, Adenosine receptor A3 (Homo sapiens, UniProt P0DMS8)
T2 sequence (P0DMS8 whole entry): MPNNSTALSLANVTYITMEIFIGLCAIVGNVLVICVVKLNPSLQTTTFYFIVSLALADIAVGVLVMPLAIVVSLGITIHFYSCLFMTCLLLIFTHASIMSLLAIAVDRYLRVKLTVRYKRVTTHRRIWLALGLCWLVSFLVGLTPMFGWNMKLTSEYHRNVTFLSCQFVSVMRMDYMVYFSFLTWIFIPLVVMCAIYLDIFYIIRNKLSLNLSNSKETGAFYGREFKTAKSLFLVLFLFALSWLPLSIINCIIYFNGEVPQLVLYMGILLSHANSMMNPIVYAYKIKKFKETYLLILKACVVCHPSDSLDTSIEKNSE

[2] = molecular target: Sodium-dependent dopamine transporter (Homo sapiens, UniProt Q01959)
[3] = molecular target: T3, Gastrin/cholecystokinin type B receptor (Homo sapiens, UniProt P32239)
T3 sequence (P32239 whole entry): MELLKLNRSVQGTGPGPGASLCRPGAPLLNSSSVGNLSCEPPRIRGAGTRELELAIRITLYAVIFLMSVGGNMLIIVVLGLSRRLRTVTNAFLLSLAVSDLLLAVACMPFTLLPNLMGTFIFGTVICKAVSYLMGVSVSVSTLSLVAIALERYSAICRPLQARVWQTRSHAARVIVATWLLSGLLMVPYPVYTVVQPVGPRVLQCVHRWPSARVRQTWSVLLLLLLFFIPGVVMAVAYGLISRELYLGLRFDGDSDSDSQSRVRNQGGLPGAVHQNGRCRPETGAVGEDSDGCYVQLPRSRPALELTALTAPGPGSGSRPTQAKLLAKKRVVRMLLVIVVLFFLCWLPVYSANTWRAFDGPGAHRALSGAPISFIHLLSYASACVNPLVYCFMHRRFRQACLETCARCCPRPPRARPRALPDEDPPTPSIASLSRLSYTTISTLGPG

[4] = molecular target: T4, Amine oxidase [flavin-containing] A (Homo sapiens, UniProt P21397); format: functional
T4 sequence (P21397 whole entry): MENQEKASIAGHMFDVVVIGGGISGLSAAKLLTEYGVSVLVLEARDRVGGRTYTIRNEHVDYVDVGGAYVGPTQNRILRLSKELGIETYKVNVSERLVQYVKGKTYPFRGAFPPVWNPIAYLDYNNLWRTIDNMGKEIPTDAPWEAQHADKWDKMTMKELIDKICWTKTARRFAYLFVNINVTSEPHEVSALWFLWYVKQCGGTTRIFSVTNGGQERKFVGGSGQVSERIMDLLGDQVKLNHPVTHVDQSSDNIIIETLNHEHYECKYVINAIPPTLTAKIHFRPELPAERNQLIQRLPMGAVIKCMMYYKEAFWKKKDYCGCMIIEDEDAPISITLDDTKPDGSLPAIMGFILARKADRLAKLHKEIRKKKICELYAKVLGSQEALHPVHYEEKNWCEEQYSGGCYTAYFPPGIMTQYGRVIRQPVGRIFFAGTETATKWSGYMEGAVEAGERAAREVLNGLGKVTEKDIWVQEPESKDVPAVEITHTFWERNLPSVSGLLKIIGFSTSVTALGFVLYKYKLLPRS

[5] = molecular target: Voltage-gated inwardly rectifying potassium channel KCNH2 (Homo sapiens, UniProt Q12809); format: functional
[6] = molecular target: Delta-type opioid receptor (Homo sapiens, UniProt P41143)
[7] = molecular target: Kappa-type opioid receptor (Homo sapiens, UniProt P41145)
Progesterone receptor = molecular target: T5, Progesterone receptor (Homo sapiens, UniProt P06401); format: functional
T5 sequence (P06401 whole entry): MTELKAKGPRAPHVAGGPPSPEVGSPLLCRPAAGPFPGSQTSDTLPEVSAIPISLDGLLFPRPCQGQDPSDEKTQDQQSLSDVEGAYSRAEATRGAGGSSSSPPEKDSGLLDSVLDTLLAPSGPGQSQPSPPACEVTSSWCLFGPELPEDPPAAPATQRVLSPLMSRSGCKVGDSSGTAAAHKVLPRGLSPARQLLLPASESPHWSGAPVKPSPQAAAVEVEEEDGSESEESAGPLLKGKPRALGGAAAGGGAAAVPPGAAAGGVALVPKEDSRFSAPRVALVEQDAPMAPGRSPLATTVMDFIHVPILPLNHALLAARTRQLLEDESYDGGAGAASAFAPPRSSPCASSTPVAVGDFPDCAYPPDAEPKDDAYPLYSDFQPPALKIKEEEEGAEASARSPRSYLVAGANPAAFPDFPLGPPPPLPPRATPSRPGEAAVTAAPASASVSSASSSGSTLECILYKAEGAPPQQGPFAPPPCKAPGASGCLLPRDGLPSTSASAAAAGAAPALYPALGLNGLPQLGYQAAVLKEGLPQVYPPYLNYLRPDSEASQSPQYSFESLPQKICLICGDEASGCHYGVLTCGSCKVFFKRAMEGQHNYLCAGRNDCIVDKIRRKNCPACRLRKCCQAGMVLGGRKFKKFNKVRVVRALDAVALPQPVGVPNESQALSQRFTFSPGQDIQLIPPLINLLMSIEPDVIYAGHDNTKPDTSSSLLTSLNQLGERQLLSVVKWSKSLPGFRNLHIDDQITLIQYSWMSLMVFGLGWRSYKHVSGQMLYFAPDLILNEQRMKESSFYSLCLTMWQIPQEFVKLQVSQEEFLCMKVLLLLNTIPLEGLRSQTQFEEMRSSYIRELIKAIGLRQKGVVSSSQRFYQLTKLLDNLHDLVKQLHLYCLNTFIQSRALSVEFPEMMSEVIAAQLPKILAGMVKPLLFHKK
Note: assay procedure not described here.

Sequence of Voltage-gated inwardly rectifying potassium channel KCNH2 (Q12809 whole entry): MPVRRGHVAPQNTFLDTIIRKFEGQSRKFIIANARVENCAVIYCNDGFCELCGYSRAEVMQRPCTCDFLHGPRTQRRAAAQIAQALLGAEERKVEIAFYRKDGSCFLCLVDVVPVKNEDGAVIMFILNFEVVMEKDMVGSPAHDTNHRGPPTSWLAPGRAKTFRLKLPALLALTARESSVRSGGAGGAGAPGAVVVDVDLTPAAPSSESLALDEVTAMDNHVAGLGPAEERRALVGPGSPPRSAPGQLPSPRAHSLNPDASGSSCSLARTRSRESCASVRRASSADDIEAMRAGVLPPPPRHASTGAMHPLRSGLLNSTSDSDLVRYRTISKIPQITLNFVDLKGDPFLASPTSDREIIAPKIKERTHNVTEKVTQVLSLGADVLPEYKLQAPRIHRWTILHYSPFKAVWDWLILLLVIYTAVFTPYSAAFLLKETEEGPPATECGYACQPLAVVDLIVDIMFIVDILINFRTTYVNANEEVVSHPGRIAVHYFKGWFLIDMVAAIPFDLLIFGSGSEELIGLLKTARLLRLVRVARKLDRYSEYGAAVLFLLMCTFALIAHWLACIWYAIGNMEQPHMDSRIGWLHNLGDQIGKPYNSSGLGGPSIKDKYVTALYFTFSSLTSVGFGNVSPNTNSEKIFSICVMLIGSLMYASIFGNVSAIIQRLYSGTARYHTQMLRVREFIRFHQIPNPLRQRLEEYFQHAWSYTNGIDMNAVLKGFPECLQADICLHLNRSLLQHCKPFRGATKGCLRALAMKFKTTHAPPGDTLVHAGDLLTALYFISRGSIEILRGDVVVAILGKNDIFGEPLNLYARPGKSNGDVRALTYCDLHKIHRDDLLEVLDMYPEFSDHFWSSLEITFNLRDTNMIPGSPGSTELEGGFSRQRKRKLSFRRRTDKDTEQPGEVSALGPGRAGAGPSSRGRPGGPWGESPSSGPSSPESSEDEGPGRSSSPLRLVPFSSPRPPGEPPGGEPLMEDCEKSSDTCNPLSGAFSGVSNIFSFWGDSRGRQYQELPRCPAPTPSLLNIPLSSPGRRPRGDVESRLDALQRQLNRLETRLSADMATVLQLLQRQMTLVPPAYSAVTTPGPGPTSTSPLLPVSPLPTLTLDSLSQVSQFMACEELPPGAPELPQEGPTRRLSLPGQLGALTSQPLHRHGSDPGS
Sequence of Kappa-type opioid receptor (P41145 whole entry): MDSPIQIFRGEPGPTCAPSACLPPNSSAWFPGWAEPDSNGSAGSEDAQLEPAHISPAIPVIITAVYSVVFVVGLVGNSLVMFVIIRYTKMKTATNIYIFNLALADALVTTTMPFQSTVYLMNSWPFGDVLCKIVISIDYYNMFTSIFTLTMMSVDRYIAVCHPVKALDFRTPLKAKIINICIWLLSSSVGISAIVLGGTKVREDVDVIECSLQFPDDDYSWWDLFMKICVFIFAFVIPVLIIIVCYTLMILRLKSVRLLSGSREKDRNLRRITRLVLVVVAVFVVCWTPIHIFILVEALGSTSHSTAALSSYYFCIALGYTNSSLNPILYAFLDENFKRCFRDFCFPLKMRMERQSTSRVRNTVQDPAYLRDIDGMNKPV
Sequence of Sodium-dependent dopamine transporter (Q01959 whole entry): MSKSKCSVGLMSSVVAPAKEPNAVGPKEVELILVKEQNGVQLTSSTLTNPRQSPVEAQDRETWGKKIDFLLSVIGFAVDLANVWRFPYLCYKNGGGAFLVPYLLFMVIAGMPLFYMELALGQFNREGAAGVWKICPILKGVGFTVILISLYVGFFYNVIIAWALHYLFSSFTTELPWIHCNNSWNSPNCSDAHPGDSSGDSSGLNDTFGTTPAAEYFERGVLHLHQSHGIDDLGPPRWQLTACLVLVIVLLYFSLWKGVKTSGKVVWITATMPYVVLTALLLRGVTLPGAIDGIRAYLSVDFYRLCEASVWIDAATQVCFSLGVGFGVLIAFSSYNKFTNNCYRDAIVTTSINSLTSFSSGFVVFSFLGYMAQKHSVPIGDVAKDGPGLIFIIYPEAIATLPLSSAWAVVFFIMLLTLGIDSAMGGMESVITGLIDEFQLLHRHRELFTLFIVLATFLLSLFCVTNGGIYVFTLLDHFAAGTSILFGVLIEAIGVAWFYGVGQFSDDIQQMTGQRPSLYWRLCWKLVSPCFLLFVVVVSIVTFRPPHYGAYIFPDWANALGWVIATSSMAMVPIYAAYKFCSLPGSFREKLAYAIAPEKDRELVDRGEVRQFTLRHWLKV
Sequence of Delta-type opioid receptor (P41143 whole entry): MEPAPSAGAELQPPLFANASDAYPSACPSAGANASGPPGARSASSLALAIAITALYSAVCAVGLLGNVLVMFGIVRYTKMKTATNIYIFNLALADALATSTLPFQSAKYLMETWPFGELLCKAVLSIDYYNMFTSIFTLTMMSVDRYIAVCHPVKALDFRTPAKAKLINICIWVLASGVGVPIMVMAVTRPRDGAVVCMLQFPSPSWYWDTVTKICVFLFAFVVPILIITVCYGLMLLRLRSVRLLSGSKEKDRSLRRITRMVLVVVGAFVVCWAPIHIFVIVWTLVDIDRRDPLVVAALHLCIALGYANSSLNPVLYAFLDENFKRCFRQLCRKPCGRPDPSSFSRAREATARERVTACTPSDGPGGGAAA
Sequence of Vasopressin V1a receptor (P37288 whole entry): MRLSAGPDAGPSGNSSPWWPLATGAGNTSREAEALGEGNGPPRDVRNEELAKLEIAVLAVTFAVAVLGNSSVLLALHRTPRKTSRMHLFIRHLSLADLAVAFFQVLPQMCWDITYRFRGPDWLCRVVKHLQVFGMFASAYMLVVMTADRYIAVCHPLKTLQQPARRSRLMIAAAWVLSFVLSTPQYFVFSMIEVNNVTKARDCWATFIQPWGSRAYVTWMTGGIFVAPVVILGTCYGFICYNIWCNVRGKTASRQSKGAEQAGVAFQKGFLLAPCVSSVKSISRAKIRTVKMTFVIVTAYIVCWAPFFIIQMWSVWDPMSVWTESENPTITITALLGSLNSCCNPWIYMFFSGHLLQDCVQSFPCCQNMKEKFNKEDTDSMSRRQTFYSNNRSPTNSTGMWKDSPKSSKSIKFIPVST

SMILES	AC50 (Vasopressin V1a receptor) [µM]	AC50 [1] [µM]	AC50 (Adenosine receptor A3) [µM]	AC50 [2] [µM]	AC50 [3] [µM]	AC50 [4] [µM]	AC50 [5] [µM]	AC50 [6] [µM]	AC50 [7] [µM]	AC50 (Progesterone receptor) [µM]
CC(C)N(CCCCOCC(=O)O)c1cnc(-c2ccccc2)c(-c2ccccc2)n1	> 30	> 30	10.1	> 30	> 3	> 30	> 30	> 30	> 30	> 30
C[N+]12CCC(CC1)C(OC(=O)C(O)(c1ccccc1)c1ccccc1)C2 (centres undefined)	> 30	> 30	> 30	> 30	> 30	> 30	1.3	> 30	> 30	> 30
O=C(O)CCNC(=O)c1ccc(/N=N/c2ccc(O)c(C(=O)O)c2)cc1 [BALSALAZIDE]	33.7	> 30	27.4	> 30	> 30	> 30	> 30	> 30	> 30	> 30
O=C(CCCN1CCC(O)(c2ccc(Br)cc2)CC1)c1ccc(F)cc1 [BROMPERIDOL]	> 30	–	> 30	–	> 30	> 30	0.23	> 30	10	> 30
Clc1ccc(CCC(Cn2ccnc2)Sc2c(Cl)cccc2Cl)cc1 (centres undefined) [BUTOCONAZOLE]	> 30	> 30	16	20	> 30	> 30	5.9	> 30	1.8	9.1
CO/N=C(\C(=O)N[C@@H]1C(=O)N2C(C(=O)O)=CCS[C@H]12)c1csc(N)n1 [CEFTIZOXIME]	> 30	> 30	> 30	> 30	> 30	> 30	> 30	–	–	26
CO/N=C(\C(=O)N[C@@H]1C(=O)N2C(C(=O)O)=C(CSc3nc(=O)c(=O)[nH]n3C)CS[C@H]12)c1csc(N)n1 [CEFTRIAXONE]	> 30	> 30	> 30	> 30	> 30	> 30	> 30	> 30	> 30	23
Oc1ccc(CCNCCCCCCNCCc2ccccc2)cc1O [DOPEXAMINE]	> 30	> 30	12	0.5	> 30	> 30	2.9	> 30	4.3	> 30
CCc1cc2c(s1)-n1c(C)nnc1CN=C2c1ccccc1Cl [ETIZOLAM]	> 30	> 30	> 30	> 30	> 30	> 30	> 30	> 30	2.5	> 30
CC/C=C\C/C=C\C/C=C\C/C=C\C/C=C\CCCC(=O)OCC [ICOSAPENT ETHYL]	> 30	> 30	18	> 30	> 30	> 30	> 30	> 30	> 30	3.5
NNC(=O)c1ccncc1 [ISONIAZID]	> 30	> 30	32.7	> 30	> 30	> 30	> 30	> 30	> 30	> 30
COc1ccc(CN2CCN(C(c3ccc(F)cc3)c3ccc(F)cc3)CC2)c(OC)c1OC [LOMERIZINE]	> 30	> 30	17	16	> 30	> 30	0.45	> 30	12	> 30
O=C(NCCO[N+](=O)[O-])c1cccnc1 [NICORANDIL]	> 30	> 30	> 30	> 30	> 30	> 30	> 30	> 30	> 30	> 30
O=c1[nH]c2ccccc2n1CCCN1CCN(C(c2ccccc2)c2ccccc2)CC1 [OXATOMIDE]	22	> 30	15	0.9	> 30	> 30	0.026	> 30	13	> 30
COc1cc2[nH]c(C)c(CCN3CCN(c4ccccc4)CC3)c2cc1OC [OXYPERTINE]	> 30	7.4	20	2.3	> 30	> 30	–	> 30	> 30	> 30
c1ccc(C2(N3CCCCC3)CCCCC2)cc1 [PHENCYCLIDINE]	> 30	> 30	> 30	2.6	> 30	> 30	12	> 30	> 30	> 30
C=CCN1CCc2nc(N)sc2CC1 [TALIPEXOLE]	> 30	–	> 30	> 30	> 30	> 30	> 30	> 30	17	> 30
